Converted amounts (≈) assume the structure as drawn.
Key:
Cytotoxicity MTT assay = format: cell-based, Human; details: human, HelaM cells, read-out: HELAM (222.125) CC50
Description: Cytotoxicity of the compounds was evaluated using the MTT assay. Human HelaM cells grown in 96-well plates were exposed to serial dilutions of the tested compounds (final volume of 0.2 ml) and incubated for 72 hours at 37° C. and 5% CO2 Inhibitors are typically varied over the range of 25 to 0.8 μM. The final DMSO concentration in the assay is 0.5%. MTT (3-(4,5-Dimethylthiazol-2-yl)-2,5-diphenyltetrazolium bromide, a tetrazole) was added and reduced to purple formazan only in living cells. Solubilization of the formazan crystals was achieved by adding 100 μl 2-propanol. Cell viability was determined by measuring the absorbance of the reduced formazan, giving a purple color, at 540 nm and 690 nm. The absorbance measured at 690 nm was automatically subtracted from the absorbance at 540 nm, to eliminate the effects of non-specific absorption. The percent cytotoxicity achieved by the compounds was calculated according to standard methods. Cytotoxicity is reported as CC50, the concentration that causes a 50% reduction in cell viability.
The results are depicted in the table(s) below (HELAM).

S. aureus = experiment: Antibacterial susceptibility testing, IC90 determination with 10% human serum; format: cell-based, Staphylococcus aureus; details: Staphylococcus aureus, S. aureus with human serum at final concentration of 10%; read-out: STA + 10% HS (361.169) IC90
Description: (§1) Antibacterial Susceptibility Testing: IC90 Determination MIC assays were performed by the broth microdilution method in a 96-well format (flat-bottom microtitre plates) with a final volume of 0.1 ml Mueller Hinton broth containing two-fold serial dilutions of compounds and inoculated with 5×10^5 CFU/ml of bacteria (standard inoculum size according to CLSI guidelines). Inhibitors are typically varied over the range of 63 to 0.49 μM. The final DMSO concentration in the assay was 1.25% (maximum tolerable DMSO concentration=6%). In the assays where the effect of human serum on the activity of the compounds against S. aureus was tested, human serum was added at a final concentration of 10%. The plates were incubated at 35° C. for 16-20 hours. At the end of incubation the bacterial growth was quantified fluorometrically. For this, resazurin was added to all wells and the plates were re-incubated. The incubation time is dependent on the type of bacteria. A change in color from blue to pink indicated the growth of bacteria. The fluorescence was read in computer-controlled fluorometer (Fluoroskan Ascent FL, Labsystems) at an excitation wavelength 540 nm and an emission wavelength of 590 nm. The % growth inhibition achieved by the compounds was calculated according to standard methods. The IC90 (expressed in μg/ml) was defined as the 90% inhibitory concentration for bacterial growth. A panel of reference compounds were simultaneously tested for QC approval. The results are depicted in the table(s) below (STA+10% HS).

[1] = molecular target: T1, S. aureus ATCC 29213 FabI (Staphylococcus aureus, UniProt Q6GI75); experiment: Staphylococcus aureus FabI enzyme inhibition assay; format: biochemical; details: NADH consumption, 30 minutes, read-out: FabI (300.235) IC50 (converted)
T1 sequence (Q6GI75 1-256): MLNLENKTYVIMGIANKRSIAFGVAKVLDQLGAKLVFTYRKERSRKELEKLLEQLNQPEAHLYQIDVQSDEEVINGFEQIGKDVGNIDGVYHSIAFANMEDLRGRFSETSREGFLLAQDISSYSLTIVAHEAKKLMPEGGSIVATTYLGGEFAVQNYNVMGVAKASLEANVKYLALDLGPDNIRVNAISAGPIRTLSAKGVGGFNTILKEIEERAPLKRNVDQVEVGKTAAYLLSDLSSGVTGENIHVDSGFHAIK
Description: Y.1 FabI Enzyme Inhibition: Staphylococcus aureus FabI Enzyme Inhibition Assay
FabI enzyme inhibition assays were carried out in half-area, 384-well microtitre plates. […] The reaction mixtures were incubated for 30 minutes at room temperature and the reaction was stopped by adding 200 mM Tris buffer (pH 9.0) to create a pH-shift. The consumption of NADH was monitored by measuring the change in absorbance at […]. By comparing sample readings to those of negative (absence of compound) and positive (absence of enzyme) controls, the percent inhibition of enzymatic activity of the compounds was determined A best-fit curve is fitted by a minimum of squares method. From this an IC50-value (expressed in μg/ml), resulting in 50% inhibition of enzymatic activity, was obtained.

[2] = system: Staphylococcus aureus ATCC 29213; experiment: Antibacterial susceptibility testing, IC90 determination (broth microdilution, resazurin); format: cell-based; details: Staphylococcus aureus, ATCC29213, S. aureus ATCC 29213; 90% inhibitory concentration for bacterial growth; read-out: STA (361.159) IC90
Description: Y.2 In Vitro Method for Testing Compounds for Antibacterial Activity Against Various Bacterial Strains
Preparation of Bacterial Suspensions for Susceptibility Testing
The following bacteria were used: Staphylococcus aureus ATCC 29213, methicillin-resistant Staphylococcus aureus (MRSA) ATCC 700788 and Escherichia coli ATCC 35218. The bacteria used in this study were grown overnight in flasks containing 100 ml Mueller-Hinton broth (Difco cat. nr. 0757-17) in sterile de-ionized water, with shaking, at 37° C. Stocks were store at −70° C. until use.
Bacteria were incubated on a tryptic soy agar plate containing 5% sheep blood (Becton Dickinson cat. nr. 254053) for 18-24 hours at 35° C. in aerobic conditions (first passage). For the second passage, fresh Mueller-Hinton broth is inoculated with 5-10 colonies and grown overnight at 35° C. until turbidity (reaching log-phase) in aerobic conditions is reached. The bacterial suspension is then adjusted to 0.5 McFarland density and further diluted 1:100 in Mueller Hinton broth medium. This is used as inoculum.
The result(s) are depicted the table below (for STA ATCC 29213).
Antibacterial Susceptibility Testing: IC90 Determination
as §1, with “MIC” for “Antibacterial Susceptibility Testing: IC90 Determination MIC”, “approval.” for “approval. The results are depicted in the table(s) below (STA+10% HS).”

Compound	melting point [°C]	IC90 (S. aureus) [µg/mL]	IC50 [1] [nM]	IC90 [2] [µg/mL]	CC50 at 72 h (Cytotoxicity MTT assay) [µg/mL]
COc1ccc(F)cc1C1=CCCN(C(=O)/C=C/c2ccc(NC(=O)c3cncc(C)c3)nc2)CC1 [compound 5]	120	2.83	1790	0.66 (≈ 1.36 µM)	7.8 (≈ 16 µM)
CC(=O)Nc1ccc(/C=C/C(=O)N2CCC=C(c3ccccc3)CC2)cn1 [compound 6]	152	1.9	~802	0.69 (≈ 1.91 µM)	> 9.08
O=C(/C=C/c1ccc(Nc2ccccc2)nc1)N1CCC=C(c2ccccc2)CC1 [compound 14]	150	24.1	2250	1.45 (≈ 3.67 µM)	6.27 (≈ 15.9 µM)
O=C(Nc1ccc(/C=C/C(=O)N2CCC=C(c3ccccc3)CC2)cn1)c1c[nH]cn1 [compound 11]	120	3.17	1620	1.26 (≈ 3.05 µM)	> 10.4
Cc1occc1C(=O)Nc1ccc(/C=C/C(=O)N2CCC=C(c3ccccc3)CC2)cn1 [compound 8]	192	6.7	2130	0.84 (≈ 1.96 µM)	5.64 (≈ 13.2 µM)
O=C(Nc1ccc(/C=C/C(=O)N2CCC=C(c3ccccc3)CC2)cn1)c1cccnc1 [compound 1]	186	0.84	730	0.4 (≈ 0.942 µM)	0.43 (≈ 1.01 µM)
Cn1nccc1C(=O)Nc1ccc(/C=C/C(=O)N2CCC=C(c3ccccc3)CC2)cn1 [compound 10]	138	2.07	1920	0.92 (≈ 2.15 µM)	5.44 (≈ 12.7 µM)

The next lines start with results.

melting point [°C]	IC90 (S. aureus) [µg/mL]	IC50 [1] [nM]	IC90 [2] [µg/mL]	Compound	CC50 at 72 h (Cytotoxicity MTT assay) [µg/mL]
141	> 26.2	2050	6.29 (≈ 15.1 µM)	O=C(Nc1ccc(/C=C/C(=O)N2CCC=C(c3ccccc3)CC2)cn1)C1CCCC1 [compound 18]	2.62 (≈ 6.31 µM)
134	8.56	2410	4.29 (≈ 10 µM)	Cn1cnc(C(=O)Nc2ccc(/C=C/C(=O)N3CCC=C(c4ccccc4)CC3)cn2)c1 [compound 17]	13.9 (≈ 32.5 µM)
218.22	0.54	~1020	0.38 (≈ 0.897 µM)	COc1ccc(F)cc1C1=CCCN(C(=O)/C=C/c2cnc3c(c2)COC(=O)N3)CC1 [compound 35]	6.56 (≈ 15.5 µM)
152	11.8	934	6.69 (≈ 16 µM)	O=C(Nc1ccc(/C=C/C(=O)N2CCC=C(c3ccccc3)CC2)cn1)C1CCOC1 (stereo not shown) [compound 20]	10 (≈ 24 µM)
244.33	0.67	986	0.6 (≈ 1.6 µM)	O=C1Nc2ncc(/C=C/C(=O)N3CCC=C(c4ccccc4)CC3)cc2CO1 [compound 41]	> 9.43
198	3.64	~2810	4.8 (≈ 9.44 µM)	COc1ccc(CN2CC(=O)Nc3ncc(/C=C/C(=O)N4CCC=C(c5ccccc5)CC4)cc3C2)cc1 [compound 44]	> 12.8
192	0.26	~933	< 0.21	COc1ccc(F)cc1C1=CCCN(C(=O)/C=C/c2cnc3c(c2)CNCC(=O)N3)CC1 [compound 31]	> 11
220	1.58	697	0.64 (≈ 1.44 µM)	O=C1Nc2ncc(/C=C/C(=O)N3CC=C(c4ccccc4)CCC3)cc2CN2CCOCC12 (stereo not shown) [compound 50]	22 (≈ 49.5 µM)
234	0.41	1260	0.22 (≈ 0.503 µM)	COc1ccc(F)cc1C1=CCCN(C(=O)/C=C/c2cnc3c(c2)COCC(=O)N3)CC1 [compound 32]	10.1 (≈ 23.2 µM)
169.37	6.71	1540	3.29 (≈ 7.68 µM)	Cc1cc(C(=O)Nc2ccc(/C=C/C(=O)N3CCC=C(c4ccccc4)CC3)cn2)no1 [compound 16]	7.89 (≈ 18.4 µM)

Source: patent publication US9296760B2, “Antibacterial compounds” (JANSSEN SCIENCES IRELAND UC, priority 2012, dated 2016)
